Source: BindingDB's records for doi:10.1016/j.bmcl.2004.07.050 (University of Georgia, 2004)

Target: Integrase (HIV-1)
Experiment: Inhibitory activity against strand transfer in wild-type HIV-1 integrase was determined using 21-mer oligonucleotide substrate

IC50 [µM]	SMILES
65	Nc1ccn(C2COC(COP(=O)(O)OC3CC(n4cnc5c(N)ncnc54)OC3COP(=O)(O)O)C2O)c(=O)n1 (configuration not stated) [[4-(4-amino-2-oxo-1,2-dihydropyrimidin-1-yl)-3-hydroxyoxolan-2-yl]methyl [5-(6-amino-9H-purin-9-yl)-2-[(phosphonatooxy)methyl]oxolan-3-yl] phosphate]
41	Nc1ncnc2c1ncn2C1CC(OP(=O)(O)OCC2OCC(n3cnc4c(N)ncnc43)C2O)C(COP(=O)(O)O)O1 (configuration not stated) [Phosphoric acid 4-(6-amino-purin-9-yl)-3-hydroxy-tetrahydro-furan-2-ylmethyl ester 5-(6-amino-purin-9-yl)-2-phosphonooxymethyl-tetrahydro-furan-3-yl ester]
